# US20250188057A1, “NON-AROMATIC CYCLIC-PYRIMIDINE ANALOGS AS GLUCOSYLCERAMIDE SYNTHASE INHIBITORS” (Merck Sharp & Dohme LLC, priority 2022, published 2025)
# Biological target: glucosylceramide synthase (GCS) (Homo sapiens (Human), UniProt Q16739)
# Assay: UDP-Glo glucosylceramide synthase biochemical assay
# Details: endogenous GCS in Golgi preparations isolated from human A375 malignant melanoma skin cells; UDP detection by luminescence
# Summary of the method: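 Endogenous GCS in A375 Golgi preparations (1.5 μg total protein) was preincubated with compound for 30 min at RT, then reacted with UDP-glucose and ceramide for 20 h at RT. UDP was detected by luciferase luminescence, normalized to DMSO and reference-inhibitor controls, with EC50 and % Emax from a 4PL fit.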
# glucosylceramide synthase (GCS), sequence (Q16739 whole entry): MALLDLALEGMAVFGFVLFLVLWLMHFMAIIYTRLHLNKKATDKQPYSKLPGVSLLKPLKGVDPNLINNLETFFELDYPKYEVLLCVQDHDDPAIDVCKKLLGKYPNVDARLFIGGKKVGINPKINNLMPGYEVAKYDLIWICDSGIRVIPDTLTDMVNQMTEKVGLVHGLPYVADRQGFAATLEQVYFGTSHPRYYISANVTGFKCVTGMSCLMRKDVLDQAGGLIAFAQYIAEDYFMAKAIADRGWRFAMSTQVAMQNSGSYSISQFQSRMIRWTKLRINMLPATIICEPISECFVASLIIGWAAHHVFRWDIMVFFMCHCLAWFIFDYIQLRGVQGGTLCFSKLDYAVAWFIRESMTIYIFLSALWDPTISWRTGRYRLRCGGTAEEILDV
row,IC50,SMILES
1,4520 nM,"COc1ccc(C)nc1N1CC[C@H](COc2nc(C3CC3)ncc2C#N)C1 [Compound 28, (S)-2-cyclopropyl-4-((1-(3-methoxy-6-methylpyridin-2-yl)pyrrolidin-3-yl)methoxy)pyrimidine-5-carbonitrile]"
2,3660 nM,"N#Cc1cnc(C2CC2)nc1OC[C@H]1CCN(c2nnc(C3CC3)s2)C1 [Compound 23, (S)-2-cyclopropyl-4-((1-(5-cyclopropyl-1,3,4-thiadiazol-2-yl)pyrrolidin-3-yl)methoxy)pyrimidine-5-carbonitrile]"
3,750 nM,"OCc1c(Cl)nc(C2CC2)nc1N1CCC[C@@H]1c1ncc(-c2ccccc2)s1 [Compound 113, (R)-(4-chloro-2-cyclopropyl-6-(2-(5-phenylthiazol-2-yl)pyrrolidin-1-yl)pyrimidin-5-yl)methanol]"
4,529 nM,"COc1cccc(N2CC[C@H](COc3nc(C4CC4)ncc3C#N)C2)n1 [Compound 12, (S)-2-cyclopropyl-4-((1-(6-methoxypyridin-2-yl)pyrrolidin-3-yl)methoxy)pyrimidine-5-carbonitrile]"
5,2330 nM,"OCc1c(Cl)nc(C2CC2)nc1N1Cc2nc(-c3ccccc3)oc2C1 [Compound 112, (4-chloro-2-cyclopropyl-6-(2-phenyl-4,6-dihydro-5H-pyrrolo[3,4-d]oxazol-5-yl)pyrimidin-5-yl)methanol]"
6,2050 nM,"N#Cc1cnc(C2CC2)nc1OC[C@H]1CCN(c2cccc3ncccc23)C1 [Compound 34, (S)-2-cyclopropyl-4-((1-(quinolin-5-yl)pyrrolidin-3-yl)methoxy)pyrimidine-5-carbonitrile]"
7,1350 nM,"N#Cc1cnc(C2CC2)nc1N1CCC2(CC1)Cc1cc(F)ccc1O2 [Compound 64, 2-cyclopropyl-4-(5-fluoro-3H-spiro[benzofuran-2,4′-piperidin]-1′-yl)pyrimidine-5-carbonitrile]"
8,1620 nM,"N#Cc1cnc(C2CC2)nc1N(CC1CCC1)CC1CCCO1 (stereo not shown) [Compound 90, 4-((cyclobutylmethyl)((tetrahydrofuran-2-yl)methyl)amino)-2-cyclopropylpyrimidine-5-carbonitrile]"
9,446 nM,"Cc1ccc(-c2noc(CN3CCN(c4nc(C5CC5)ncc4C#N)CC3)n2)cc1 [Compound 88, 2-cyclopropyl-4-(4-((3-(p-tolyl)-1,2,4-oxadiazol-5-yl)methyl)piperazin-1-yl)pyrimidine-5-carbonitrile]"
10,357 nM,"N#Cc1cnc(C2CC2)nc1OC[C@H]1CCN(c2cccc(-n3cccn3)c2)C1 [Compound 16, (S)-4-((1-(3-(1H-pyrazol-1-yl)phenyl)pyrrolidin-3-yl)methoxy)-2-cyclopropylpyrimidine-5-carbonitrile]"
11,67 nM,"N#Cc1cnc(C2CC2)nc1OC[C@H]1CCN(c2ccc(-c3ccno3)cc2)C1 [Compound 18, (S)-2-cyclopropyl-4-((1-(4-(isoxazol-5-yl)phenyl)pyrrolidin-3-yl)methoxy)pyrimidine-5-carbonitrile]"
12,255 nM,"N#Cc1cnc(C2CC2)nc1OC[C@@H]1CCN(c2ccc(C(F)(F)F)nc2)C1 [Compound 45, (R)-2-cyclopropyl-4-((1-(6-(trifluoromethyl)pyridin-3-yl)pyrrolidin-3-yl)methoxy)pyrimidine-5-carbonitrile]"
13,218 nM,"N#Cc1ccccc1C1CCN(c2nc(C3CC3)ncc2C#N)C1 (stereo not shown) [Compound 87, 4-(3-(2-cyanophenyl)pyrrolidin-1-yl)-2-cyclopropylpyrimidine-5-carbonitrile]"
14,160 nM,"N#Cc1cnc(C2CC2)nc1OCC1CCN(c2ccccc2)C1 (stereo not shown) [Compound 100, 2-cyclopropyl-4-((1-phenylpyrrolidin-3-yl)methoxy)pyrimidine-5-carbonitrile]"
15,249 nM,"N#Cc1cnc(C2CC2)nc1OC[C@H]1CCN(c2cccc(-c3nccs3)c2)C1 [Compound 10, (S)-2-cyclopropyl-4-((1-(3-(thiazol-2-yl)phenyl)pyrrolidin-3-yl)methoxy)pyrimidine-5-carbonitrile]"
16,1300 nM,"N#Cc1cnc(C2CC2)nc1OC[C@H]1CCN(c2cnc3ccsc3c2)C1 [Compound 21, (S)-2-cyclopropyl-4-((1-(thieno[3,2-b]pyridin-6-yl)pyrrolidin-3-yl)methoxy)pyrimidine-5-carbonitrile]"
17,4130 nM,"Cc1nc(N2CC(c3nc4ccccc4n3C)C2)cc(N2CC3(CCCC3)CC2=O)n1 [Compound 120, 2-(2-methyl-6-(3-(1-methyl-1H-benzo[d]imidazol-2-yl)azetidin-1-yl)pyrimidin-4-yl)-2-azaspiro[4.4]nonan-3-one]"
18,937 nM,"N#Cc1cnc(C2CC2)nc1N1CC2OCCN(Cc3ccccc3)C2C1 (stereo not shown) [Compound 86, 4-(4-benzylhexahydropyrrolo[3,4-b][1,4]oxazin-6(2H)-yl)-2-cyclopropylpyrimidine-5-carbonitrile]"

row,IC50,SMILES
1,23 nM,"N#Cc1cnc(C2CC2)nc1OC1CCc2ccc(C(F)(F)F)cc21 (stereo not shown) [Compound 98, 2-cyclopropyl-4-((6-(trifluoromethyl)-2,3-dihydro-1H-inden-1-yl)oxy)pyrimidine-5-carbonitrile]"
2,2080 nM,"N#Cc1cnc(C2CC2)nc1OCC12CC(COCc3ccccc3)(CO1)C2 [Compound 103, 4-((4-((benzyloxy)methyl)-2-oxabicyclo[2.1.1]hexan-1-yl)methoxy)-2-cyclopropylpyrimidine-5-carbonitrile]"
3,1020 nM,"Cc1cnc(N2CC[C@H](COc3nc(C4CC4)ncc3C#N)C2)c(C)c1 [Compound 17, (S)-2-cyclopropyl-4-((1-(3,5-dimethylpyridin-2-yl)pyrrolidin-3-yl)methoxy)pyrimidine-5-carbonitrile]"
4,1480 nM,"N#Cc1cnc(C2CC2)nc1N1CCCC(c2cc3cccnc3[nH]2)C1 (stereo not shown) [Compound 76, 4-(3-(1H-pyrrolo[2,3-b]pyridin-2-yl)piperidin-1-yl)-2-cyclopropylpyrimidine-5-carbonitrile]"
5,90 nM,"N#Cc1cnc(C2CC2)nc1OCC12CC1CN(c1ncc(C(F)(F)F)cn1)C2 (stereo not shown) [Compound 51, 2-cyclopropyl-4-((3-(5-(trifluoromethyl)pyrimidin-2-yl)-3-azabicyclo[3.1.0]hexan-1-yl)methoxy)pyrimidine-5-carbonitrile]"
6,3970 nM,"N#Cc1cnc(C2CC2)nc1OC[C@H]1CCN(C2CCC(F)(F)CC2)C1 [Compound 108, (S)-2-cyclopropyl-4-((1-(4,4-difluorocyclohexyl)pyrrolidin-3-yl)methoxy)pyrimidine-5-carbonitrile]"
7,1240 nM,"Cc1cc(N2CC[C@H](COc3nc(C4CC4)ncc3C#N)C2)ncc1F [Compound 30, (S)-2-cyclopropyl-4-((1-(5-fluoro-4-methylpyridin-2-yl)pyrrolidin-3-yl)methoxy)pyrimidine-5-carbonitrile]"
8,29 nM,"Cc1nc(-c2ccc(N3CC[C@H](COc4nc(C5CC5)ncc4C#N)C3)cc2)co1 [Compound 40, (S)-2-cyclopropyl-4-((1-(4-(2-methyloxazol-4-yl)phenyl)pyrrolidin-3-yl)methoxy)pyrimidine-5-carbonitrile]"
9,2040 nM,"N#Cc1cnc(C2CC2)nc1N1CCc2nc[nH]c2C1c1cccc(F)c1 (stereo not shown) [Compound 66, 2-cyclopropyl-4-(4-(3-fluorophenyl)-3,4,6,7-tetrahydro-5H-imidazo[4,5-c]pyridin-5-yl)pyrimidine-5-carbonitrile]"
10,28 nM,"N#Cc1cnc(C2CC2)nc1OC[C@H]1CCN(c2ccc(-n3ccnc3)cc2)C1 [Compound 31, (S)-4-((1-(4-(1H-imidazol-1-yl)phenyl)pyrrolidin-3-yl)methoxy)-2-cyclopropylpyrimidine-5-carbonitrile]"
11,1440 nM,"OCc1cnc(C2CC2)nc1OC1CCN(c2ccc(C(F)(F)F)nc2)CC1 [Compound 6, (2-cyclopropyl-4-((1-(6-(trifluoromethyl)pyridin-3-yl)piperidin-4-yl)oxy)pyrimidin-5-yl)methanol]"
12,1870 nM,"CN(C[C@H]1CCN(c2ccc(-n3cccn3)nc2)C1)c1nc(C2CC2)ncc1C#N [Compound 49, (S)-4-(((1-(6-(1H-pyrazol-1-yl)pyridin-3-yl)pyrrolidin-3-yl)methyl)(methyl)amino)-2-cyclopropylpyrimidine-5-carbonitrile]"
13,1870 nM,"N#Cc1cnc(C2CC2)nc1OCC1CCCN1Cc1ccc(F)cc1 (stereo not shown) [Compound 104, 2-cyclopropyl-4-((1-(4-fluorobenzyl)pyrrolidin-2-yl)methoxy)pyrimidine-5-carbonitrile]"
14,207 nM,"CNC(=O)[C@]12CN(c3nc(C4CC4)ncc3C#N)C[C@H]1C(c1ccc(C)cc1)=NO2 [Compound 67, (3aS,6aR)-5-(5-cyano-2-cyclopropylpyrimidin-4-yl)-N-methyl-3-(p-tolyl)-3a,4,5,6-tetrahydro-6aH-pyrrolo[3,4-d]isoxazole-6a-carboxamide]"
15,148 nM,"N#Cc1cnc(C2CC2)nc1OC[C@H]1CCN(c2ccc(OC(F)F)cn2)C1 [Compound 29, (S)-2-cyclopropyl-4-((1-(5-(difluoromethoxy)pyridin-2-yl)pyrrolidin-3-yl)methoxy)pyrimidine-5-carbonitrile]"
16,826 nM,"N#Cc1cnc(C2CC2)nc1OC[C@H]1CCN(c2cccc(-c3ncco3)c2)C1 [Compound 9, (S)-2-cyclopropyl-4-((1-(3-(oxazol-2-yl)phenyl)pyrrolidin-3-yl)methoxy)pyrimidine-5-carbonitrile]"
17,148 nM,"CC1CN(c2ncc(C(F)(F)F)cn2)CC1COc1nc(C2CC2)ncc1C#N (stereo not shown) [Compound 53, 2-cyclopropyl-4-((4-methyl-1-(5-(trifluoromethyl)pyrimidin-2-yl)pyrrolidin-3-yl)methoxy)pyrimidine-5-carbonitrile]"
18,816 nM,"Cc1nccc(-c2cccc(N3CC[C@H](COc4nc(C5CC5)ncc4C#N)C3)c2)n1 [Compound 15, (S)-2-cyclopropyl-4-((1-(3-(2-methylpyrimidin-4-yl)phenyl)pyrrolidin-3-yl)methoxy)pyrimidine-5-carbonitrile]"

row,SMILES,IC50
1,"N#Cc1ccc(N2CC[C@H](COc3nc(C4CC4)ncc3C#N)C2)cc1F [Compound 35, (S)-4-((1-(4-cyano-3-fluorophenyl)pyrrolidin-3-yl)methoxy)-2-cyclopropylpyrimidine-5-carbonitirle]",458 nM
